Data reported in the Bradley open melting point set (2014).

Point of comparison: O=[N+]([O-])c1cccc(C=Cc2cccc([N+](=O)[O-])c2)c1 [1,1'-[1,2-Ethenediyl]bis[3-nitrobenzene]], melting point 88 °C. Against it:
- N#C/C(=C\c1ccc(Cl)cc1Cl)c1nc(-c2cccc3ccccc23)cs1 — higher, 133 °C
- O=C(O)c1cc(F)nc(F)c1F [2,3,6-trifluoropyridine-4-carboxylic acid] — higher, 120 °C
- CC(C)(C)OC(=O)N[C@H](Cc1ccccc1)C(=O)O [N-boc-D-phenylalanine] — lower, 87 °C
- OCC#CCO [2-butyne-1,4-diol] — lower, 57 °C
- CCOC(=O)c1ccccc1C#N [ethyl_o-cyanobenzoate] — lower, 68 °C
- Cc1ccc(C#N)cc1C [3,4-dimethylbenzonitrile] — lower, 66 °C
- C1CCCCCCCCCCCCCC1 [cyclopentadecane] — lower, 62 °C
- O=C(NCc1ccccc1)OCCO [buramate] — lower, 40 °C
- Nc1ccc(Cl)c([N+](=O)[O-])c1 [4-chloro-3-nitroaniline] — higher, 103 °C
- CCOC(=O)C(=O)C(=O)OCC [diethyl ketomalonate] — lower, -70 °C
- Oc1c(Cl)cc(Cl)c2cccnc12 [5,7-dichloro-8-hydroxyquinoline] — higher, 181 °C
- O=[N+]([O-])/C=C/c1ccc([N+](=O)[O-])cc1 [beta,4-dinitrostyrene] — higher, 204 °C
- Cc1cc(=O)oc2cc(O)ccc12 [4-methylumbelliferone] — higher, 189 °C
- CC(=O)c1ccc(C(F)(F)F)cc1 [4'-(trifluoromethyl)acetophenone] — lower, 32 °C
- CC(N)=O [acetamide] — lower, 80 °C
- O=Cc1ccc(O)c(Cl)c1 [3-chloro-4-hydroxybenzaldehyde] — higher, 130 °C
- CCCCC(CC)COC(=O)c1ccccc1C(=O)OCC(CC)CCCC (centres undefined) [bis-2-ethylhexyl_phthalate] — lower, -50 °C
- NC(=O)c1ccc(Cl)cc1 [4-chlorobenzamide] — higher, 178 °C
- O=C(O)Cc1ccccc1-c1ccccc1 [o-phenyl_phenylacetic_acid] — higher, 116 °C
- NC(N)=Nc1nc(CSCCC(N)=NS(N)(=O)=O)cs1 [famotidine] — higher, 163 °C
- N#CCc1cccc2ccccc12 [1-naphthylacetonitrile] — lower, 34 °C
- N#C/C(=C\c1ccccc1)c1nc2ccccc2s1 [(2E)-2-(1,3-Benzothiazol-2-yl)-3-phenylacrylonitrile] — higher, 106 °C
- Oc1ccccc1C=NCCN=Cc1ccccc1O [N,N'-bis(salicylidene)ethylenediamine] — higher, 130 °C
- CCCCCCCCCCC(=O)O [Undecanoic acid] — lower, 28.5 °C
- Oc1cccc(Cl)c1 [m-chlorophenol] — lower, 34 °C
- CC(=O)c1ccccc1 [1-Phenylethanone] — lower, 19 °C
- COc1ccc(/C(C)=C/C(C)=O)cc1 [(3E)-4-(4-methoxyphenyl)pent-3-en-2-one] — lower, 53 °C
- NC(=O)NO [Hydroxyurea] — higher, 144 °C
- O=C(O)C(CBr)CBr [3-bromo-2-(bromomethyl)propionic acid] — higher, 100 °C
- Clc1ccc(-c2cc(Cl)ccc2Cl)cc1 [PCB-31] — lower, 65 °C
- CCNc1nsc2ccccc12 [etisazol] — lower, 78 °C
- Nc1ccccc1Oc1ccccc1 [2-phenoxyaniline] — lower, 47 °C
- C=CCOc1ccc(CC(=O)O)cc1Cl [Epinal] — higher, 92 °C
- Nc1cccc2c1C(=O)c1ccccc1C2=O [1-aminoanthraquinone] — higher, 254 °C
- COc1cc(=O)oc2ccccc12 [4-methoxycoumarin] — higher, 124 °C
- COB(OC)OC [trimethyl borate] — lower, -34 °C
- C=Cc1cccc([N+](=O)[O-])c1 [3-nitrostyrene] — lower, -5 °C
- O=[N+]([O-])c1cccc(CBr)c1 [3-nitrobenzyl_bromide] — lower, 59 °C
- O=C1Cc2ccccc2C(=O)O1 [Homophthalic acid anhydride] — higher, 143 °C
- N#CNC(=N)N [dicyandiamide] — higher, 210 °C
- C1=CC2=NC3=C(CCCC3)C2=CC1 [1,2,3,4-TETRAHYDROCARBAZOLE] — higher, 118 °C
- Cc1ccc(O)c(C(=O)O)c1 [5-methylsalicylic acid] — higher, 153 °C
- FC(F)Cl [Chloro(difluoro)methane] — lower, -146 °C
- CCCCCCCCCCBr [1-bromodecane] — lower, -29 °C
- CCCCCC(O)CC (centres undefined) [3-octanol] — lower, -45 °C
- c1cc(-c2ccncc2)ccn1 [4,4'-bipyridine] — higher, 113 °C
- C/C=C/C(C)C [4-methyl-trans-2-pentene] — lower, -141 °C
- CC(=O)CC(C)(C)O [4-Hydroxy-4-methylpentan-2-one] — lower, -50 °C
- Cc1ccc([N+](=O)[O-])cc1C [4-nitro-1,2-dimethylbenzene] — lower, 31 °C
- O=C(O)CCC(=O)O [succinic_acid] — higher, 188 °C
- COc1ccc(N/N=C(\C#N)c2nc(-c3ccc(C)cc3)cs2)cc1 — higher, 146 °C
- [2H]C([2H])([2H])C([2H])([2H])C([2H])([2H])C([2H])([2H])C([2H])([2H])C([2H])([2H])C([2H])([2H])C([2H])([2H])C([2H])([2H])C([2H])([2H])C([2H])([2H])C([2H])([2H])C([2H])([2H])C([2H])([2H])C([2H])([2H])C([2H])([2H])C([2H])([2H])C(=O)O [(~2~H_35_)Octadecanoic acid] — lower, 67 °C
- Oc1cccc2cccnc12 [Quinolin-8-ol] — lower, 76 °C
- C#CCCCCCCC [1-nonyne] — lower, -50 °C
- Nc1ccc2cc(O)ccc2c1 [6-Amino-2-naphthalenol] — higher, 185 °C
- COc1ccccc1N [o-anisidine] — lower, 6 °C
- CCCCC [Pentane] — lower, -130 °C
- N#Cc1cccc(CO)c1 [m-hydroxymethyl_benzonitrile] — lower, 28 °C
- CCOCCOC(C)=O [2-ethoxyethyl acetate] — lower, -62 °C
- Oc1ccccc1-c1ccccc1O [2,2'-dihydroxybiphenyl] — higher, 109 °C
- [O-][n+]1cccc(Br)c1 [3-bromopyridine n-oxide] — lower, 35 °C
- CC/C(=C(/CC)c1ccc(O)cc1)c1ccc(O)cc1 [4,4'-(3E)-Hex-3-ene-3,4-diyldiphenol] — higher, 170 °C
- [O-][n+]1onc2cc(Cl)ccc21 [5-chlorobenzofuroxan] — lower, 47 °C
- N[C@@H](Cc1ccc(O)c(O)c1)C(=O)O [l-dopa] — higher, 277 °C
- Oc1cc(Cl)ccc1Oc1ccc(Cl)cc1Cl [5-chloro-2-(2,4-dichlorophenoxy)phenol] — lower, 57 °C
- CCCCOc1ccccc1 [butyl_phenyl_ether] — lower, -19 °C
- C1CCNC1 [pyrrolidine] — lower, -63 °C
- ClC1=C(Cl)[C@]2(Cl)[C@H]3[C@H]([C@@H]4C=C[C@H]3C4)[C@@]1(Cl)C2(Cl)Cl — higher, 104 °C
- Cc1ccccc1N1C(=O)c2cc(S(N)(=O)=O)c(Cl)cc2NC1C (centres undefined) [metolazone] — higher, 252 °C
- C[Si](C)(C)N[Si](C)(C)C [hexamethyldisilazane] — lower, -78 °C
- Oc1ccccc1O [catechol] — higher, 106 °C
- ClC1C(Cl)C(Cl)C(Cl)C(Cl)C1Cl (stereo not drawn) [alpha-hexachlorocyclohexane] — higher, 160 °C
- N[C@H](Cc1ccccc1F)C(=O)O [2-fluoro-D-phenylalanine] — higher, 210 °C
